In ChEMBL document CHEMBL1121807, “Potential thyroliberin affinity labels. 1. Chloroacetyl-substituted phenylalanylpyrrolidines” (1981):

Experiments:
Rattus norvegicus [1] = species: Rattus norvegicus; assay: Agonist activity relative to TRH (Thyroliberin) was evaluated in rat; type: functional
Rattus norvegicus [2] = species: Rattus norvegicus; assay: Agonist activity relative to TRH (Thyroliberin) was evaluated in rat; None at a dose up to 30 ug; type: functional, organism-based
Rattus norvegicus [3] = species: Rattus norvegicus; assay: Agonist activity relative to TRH (Thyroliberin) was evaluated in rat at a dose of 0.6 ng; type: functional
Rattus norvegicus [4] = species: Rattus norvegicus; assay: Agonist activity relative to TRH (Thyroliberin) was evaluated in rat; none at a dose up to 30 ug; type: functional, organism-based

O=C(CCl)c1ccc(C(=O)NC(Cc2ccccc2)C(=O)N2CCCC2)cc1 (configuration not stated)
Relative activity (Rattus norvegicus [1]): 0.0006%

C[C@H](NC(=O)CCl)C(=O)N[C@@H](Cc1ccccc1)C(=O)N1CCCC1
Relative activity (Rattus norvegicus [2]): None

NC(=O)[C@@H]1CCCN1C(=O)[C@H](Cc1c[nH]cn1)NC(=O)[C@@H]1CCC(=O)N1 [PROTIRELIN]
Relative activity (Rattus norvegicus [3]): 100%

C[C@H](NC(=O)c1cccc(C(=O)CCl)c1)C(=O)N[C@@H](Cc1ccccc1)C(=O)N1CCCC1
Relative activity (Rattus norvegicus [4]): None

O=C(CCl)NC(Cc1ccccc1)C(=O)N1CCCC1 (configuration not stated)
Relative activity (Rattus norvegicus [2]): None

O=C(CCl)c1cccc(C(=O)NC(Cc2ccccc2)C(=O)N2CCCC2)c1 (configuration not stated)
Relative activity (Rattus norvegicus [1]): 0.0012%

C[C@H](NC(=O)c1ccc(C(=O)CCl)cc1)C(=O)N[C@@H](Cc1ccccc1)C(=O)N1CCCC1
Relative activity (Rattus norvegicus [1]): 0.005%
